Results taken from patent US20250034136A1 (Nimbus Wadjet, Inc., priority 2023, published 2025).
pEC50, pIC50: −log10 of the molar value. Like-named read-outs stand apart in the source and are kept apart here.

Tests used:
[1] = system: p21 induction in HCT116 cells; assay: p21 induction in HCT116 cells; assay type: cell-based; conditions: Homo sapiens, HCT-116, 24 h, read-out: P21_EC50
Protocol: The colon carcinoma cell line HCT116 was obtained from ATCC and cultured in growth medium consisting of Mccoy's 5A Medium (Gibco 16600108) supplemented with 10% FBS (Transgene FS201-02) and 100 units/mL penicillin-streptomycin (Gibco 15140122) and maintained at 37° C. under 5% CO2. On the day of seeding, 2,000 cells in 30 μL of culture media were plated per well to Poly-D-Lysine 384 Well Black Clear Plates (Biocoat 356663) and incubated overnight at 37° C. under 5% CO2. The following day, compounds were serially diluted in DMSO for a total of 11 test concentrations. […] Next, 150 nL of diluted compound was added in duplicate to the assay plate, using an Echo 655 (Labcyte). The plate was centrifuged at 500 RPM for 1 min and then incubated at 37° C. under 5% CO2 for 24 h. After 24 h, medium was removed, and cells were fixed by adding 40 μL of 4% paraformaldehyde solution to each well and incubated for 20 min at room temperature. The plate was then washed 4 times with 100 μL per well of wash buffer (PBS with 0.1% Tween-20) using a microplate washer. Next, 30 μL of ice-cold methanol was added to each well and the plate was incubated at −20° C. for 10 min. The plate was washed 4 times with 100 μL per well of wash buffer by a microplate washer, then 30 μL per well of blocking buffer (Intercept PBS blocking buffer (LI-COR 927-70001) with 0.05% Tween-20) was added and the plate was incubated at room temperature with shaking for 2 h. Next, to each test well, 20 μL of primary antibody solution (p21 Waf1/CIP (12D1) RabbitmAb (Cell Signaling Technologies 2947) diluted 1:1000 and GAPDH (D4C6R) Mouse mAb (Cell Signaling Technologies 97166) diluted 1:2000 in blocking buffer) was added and the plate was placed at 4° C., overnight. The following day, the plate was washed 5 times with 100 μL per well of wash buffer using a microplate washer for 5 min. 20 μL per well of secondary antibody (IRDye 680CW Goat anti-Mouse IgG (H+L) (LI-COR 926-68070) diluted 1: 2000 in Blocking Buffer and IRDye 800CW Goat anti-Rabbit IgG (H+L) (LI-COR 926-32211) diluted 1: 2000 in Blocking Buffer) was then added and the plate was stored for 2 h in the dark at room temperature with shaking. The plate was then washed 4 times with 100 μL per well of wash buffer again using a microplate washer. Finally, the p21 signal and the GAPDH signal were quantified using a LI-COR Odyssey CLx Imager machine reading at 800 nm and 700 nm, respectively. Each plate contained DMSO control (low control) and an internal reference WRN inhibitor (high control) respectively. […] EC50 values for each compound were generated after non-linear regression curve fitting using commercially available software.

[2] = target: WRN (BV08), human Werner helicase (Uniprot Q14191, amino acids 517-1235 with L1074F point mutation) (Homo sapiens (Human), UniProt Q14191, L1074F); assay: WRN (BV08) ADP-Glo assay; assay type: biochemical; conditions: class symbols A-E, read-out: ADP-Glo_hWRN_IC50
Sequence of WRN (BV08), human Werner helicase (Uniprot Q14191, amino acids 517-1235 with L1074F point mutation) (Q14191 other isoform, or with tags, fused parts or gaps L1074F (already in the parent)): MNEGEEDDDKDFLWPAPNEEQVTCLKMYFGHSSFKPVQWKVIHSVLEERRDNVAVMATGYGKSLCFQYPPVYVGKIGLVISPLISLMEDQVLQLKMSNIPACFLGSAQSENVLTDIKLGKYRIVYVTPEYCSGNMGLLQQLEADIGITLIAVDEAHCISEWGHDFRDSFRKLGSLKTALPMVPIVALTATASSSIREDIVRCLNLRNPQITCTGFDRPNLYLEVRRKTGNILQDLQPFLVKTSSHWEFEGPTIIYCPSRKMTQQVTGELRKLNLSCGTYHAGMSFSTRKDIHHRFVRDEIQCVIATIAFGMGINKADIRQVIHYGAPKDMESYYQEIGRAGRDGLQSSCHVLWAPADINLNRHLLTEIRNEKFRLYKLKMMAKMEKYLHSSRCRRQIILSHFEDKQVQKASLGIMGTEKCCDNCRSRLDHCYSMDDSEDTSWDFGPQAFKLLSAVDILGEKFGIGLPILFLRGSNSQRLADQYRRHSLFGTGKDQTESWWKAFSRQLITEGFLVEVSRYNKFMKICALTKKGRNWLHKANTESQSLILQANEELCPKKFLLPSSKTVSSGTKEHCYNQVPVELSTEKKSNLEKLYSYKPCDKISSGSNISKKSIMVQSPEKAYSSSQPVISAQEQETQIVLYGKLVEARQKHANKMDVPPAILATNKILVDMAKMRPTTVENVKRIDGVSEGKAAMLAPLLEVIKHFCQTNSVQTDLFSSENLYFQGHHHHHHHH
Protocol: Bovine skin gelatin (BSG), dimethyl sulfoxide (DMSO), Pluronic F-127 and tris(2-carboxyethyl)phosphine hydrochloride solution (TCEP) were purchased from Sigma-Aldrich (St. Louis, MO) at the highest level of purity possible. […] DNA strands were annealed by heating to 95° C. for 5 minutes followed by slow cooling to room temperature. Compounds in 100% DMSO (0.1 μl) were spotted into a 384-well white polystyrene Optiplate-384 (Perkin Elmer; Waltham, MA) assay plate using a LabCyte Echo 550 (Agilent; Santa Clara, CA). DMSO (0.1 μl) was added to columns 12, rows A-H and column 24, rows I-P for the maximum signal control. […] Compounds/DMSO were preincubated for 15 minutes at 25° C. with 5 μl 2×WRN (BV08), prepared as described below, in assay buffer containing 20 mM Bicine (pH=7.5), 1 mM MgCl2, 10 mM KCl, 0.1% Pluronic F-127, 0.005% BSG, 1 mM TCEP. The reaction was initiated by the addition of 5 μl 2× substrate mixture in assay buffer and incubated for 60 minutes at 25° C. The final concentrations of the assay components were 0.15 nM WRN, 5 μM ATP, and 0.1 nM DNA duplex. The final DMSO concentration was 1% and the reference compound concentration (NSC-617145) used for the minimal signal control was 20 μM. The reaction was stopped by the addition of the ADP-Glo Kit components (Promega; Madison, WI) as directed and the relative luminescence units (RLU) were read on an Envision 2104 (Perkin Elmer; Waltham, MA). % inhibition calculation:
[formula] • Where RLU=relative luminescence units, sample=signal in sample well, and MIN and MAX are the respective minimum and maximum signal controls.
[formula] • Where top and bottom are normally allowed to float but may be fixed at 100 or 0 respectively in a 3-parameter fit. Y is the % inhibition and X is the compound concentration.
Molecular Biology and virus production. […] The baculovirus from the expression plasmid WRN—BV08 was generated from transfection and amplification following the manufacturer's instructions.
Sf9 cells grown in SF900II media were infected with 1:200 WRN—BV08 P2 virus and incubated for protein expression for 72 h at 27° C. The WRN protein was purified using the following protocol. The cell pellets were thawed and resuspended in buffer A (50 mM Tris, pH 7.5, 500 mM NaCl, 1 mM TCEP, 10% Glycerol) supplemented with 0.5% CHAPS, 1 mM PMSF, 1 μg/ml Leupeptin, 1 μg/ml Pepstatin, and the Pierce Universal Nuclease and cocktail tablet. Cleared lysates were loaded onto a Ni Sepharose™ excel column and washed with buffer A and bound protein was eluted with buffer A supplemented with 300 mM imidazole. The eluted protein was dialyzed against buffer A and digested by His-tagged TEV (1:5 ratio) overnight at 4° C. ZnCl2 was added into the sample at final 15 μM before loading onto a second Ni Sepharose™ excel column. Untagged WRN protein was eluted from the column with buffer A supplemented with 20 mM imidazole, dialyzed overnight into buffer B (50 mM Tris, pH 7.5, 1 mM TCEP, 10% Glycerol) supplemented with 150 mM NaCl and loaded onto a Heparin column. Proteins were eluted with a step gradient of buffer B supplemented with 150 mM, 200 mM, 300 mM and 500 mM NaCl. WRN containing fractions were pooled and concentrated prior to loading on to size exclusion chromatography using a HiLoad 16/600 Superdex™ 200 pg column (GE Healthcare) in buffer C (20 mM HTEPES, pH 7.5, 250 mM NaCl, 0.25 mM TCEP, […]).

[3] = HCT116 cells, 24 h compound incubation

pEC50 [1, 3]	pIC50 [2]	SMILES	other results
> 6.30		CCc1c(N2CCN(C(=O)c3ncnc(C)c3O)C3CCC32)c(=O)c2nc(N(C)C)cnc2n1CC(=O)Nc1ccc(C(F)(F)F)cc1Cl (racemic) [I-34, rac-N-(2-chloro-4-(trifluoromethyl)phenyl)-2-(2-(dimethylamino)-6-ethyl-7-(5-(5-hydroxy-6-methylpyrimidine-4-carbonyl)-2,5-diazabicyclo[4.2.0]octan-2-yl)-8-oxopyrido[2,3-b]pyrazin-5(8H)-yl)acetamide]	
5.70 to 6.30		CCc1c(N2CCN(C(=O)c3ncnc(C)c3O)[C@H]3CC[C@H]32)c(=O)c2nc(N(C)C)cnc2n1CC(=O)Nc1ccc(C(F)(F)F)cc1Cl (racemic) [I-106, rac-N-(2-chloro-4-(trifluoromethyl)phenyl)-2-(2-(dimethylamino)-6-ethyl-7-(5-(5-hydroxy-6-methylpyrimidine-4-carbonyl)-2,5-diazabicyclo[4.2.0]octan-2-yl)-8-oxopyrido[2,3-b]pyrazin-5(8H)-yl)acetamide]	
5.30 to 5.70		CCc1c(N2CCN(C(=O)c3ncnc(C)c3O)[C@@H]3CC[C@H]32)c(=O)c2nc(N(C)C)cnc2n1CC(=O)Nc1ccc(C(F)(F)F)cc1Cl (single isomer, unassigned) [I-39, N-(2-chloro-4-(trifluoromethyl)phenyl)-2-(2-(dimethylamino)-6-ethyl-7-(−5-(5-hydroxy-6-methylpyrimidine-4-carbonyl)-2,5-diazabicyclo[4.2.0]octan-2-yl)-8-oxopyrido[2,3-b]pyrazin-5(8H)-yl)acetamide]	
> 6.30		CCc1c(N2CCN(C(=O)c3ncnc(C)c3O)[C@H]3CC[C@@H]32)c(=O)c2nc(N(C)C)cnc2n1CC(=O)Nc1ccc(C(F)(F)F)cc1Cl (single isomer, unassigned) [I-40, N-(2-chloro-4-(trifluoromethyl)phenyl)-2-(2-(dimethylamino)-6-ethyl-7-(−5-(5-hydroxy-6-methylpyrimidine-4-carbonyl)-2,5-diazabicyclo[4.2.0]octan-2-yl)-8-oxopyrido[2,3-b]pyrazin-5(8H)-yl)acetamide]	
	≥ 8.30	CCc1c(N2CCN(C(=O)c3ncnc(C)c3O)C[C@@H]2C)c(=O)c2nc(N3CC[C@@H]4C[C@@H]43)cnc2n1CC(=O)Nc1ccc(C(F)(F)F)cc1Cl (single isomer, unassigned) [I-193]	
	7.30 to 8.30	CCc1c(N2CCN(C(=O)c3ncnc(C)c3O)[C@H](C)[C@@H]2C)c(=O)c2nc(N(C)C)cnc2n1CC(=O)Nc1ccc(C(F)(F)F)cc1Cl (single isomer, unassigned) [I-198, N-(2-chloro-4-(trifluoromethyl)phenyl)-2-(2-(dimethylamino)-6-ethyl-7-(4-(5-hydroxy-6-methylpyrimidine-4-carbonyl)-2,3-dimethylpiperazin-1-yl)-8-oxopyrido[2,3-b]pyrazin-5(8H)-yl)acetamide]	
	7.00 to 7.30	CCc1c(N2C[C@H]3CC[C@@H]2CN3C(=O)c2ncnc(C)c2O)c(=O)c2nc(N(C)C)cnc2n1CC(=O)Nc1ccc(C(F)(F)F)cc1Cl (single isomer, unassigned) [I-248, N-(2-chloro-4-(trifluoromethyl)phenyl)-2-(2-(dimethylamino)-6-ethyl-7-(5-(5-hydroxy-6-methylpyrimidine-4-carbonyl)-2,5-diazabicyclo[2.2.2]octan-2-yl)-8-oxopyrido[2,3-b]pyrazin-5(8H)-yl)acetamide]	
	7.30 to 8.30	CCc1c(N2CCN(C(=O)c3ncnc(C)c3O)C3COCC32)c(=O)c2nc(N(C)C)cnc2n1CC(=O)Nc1ccc(C(F)(F)F)cc1Cl (single isomer, unassigned) [I-295, N-(2-chloro-4-(trifluoromethyl)phenyl)-2-(2-(dimethylamino)-6-ethyl-7-(4-(5-hydroxy-6-methylpyrimidine-4-carbonyl)hexahydrofuro[3,4-b]pyrazin-1(2H)-yl)-8-oxopyrido[2,3-b]pyrazin-5(8H)-yl)acetamide]	
		[2H]C([2H])([2H])N(c1cnc2c(n1)c(=O)c(N1CCN(C(=O)c3ncnc(C)c3O)[C@H]3CC[C@@H]31)c(CC)n2CC(=O)Nc1ccc(C(F)(F)F)cc1Cl)C([2H])([2H])[2H] [I-101, 2-(2-(bis(methyl-d3)amino)-6-ethyl-7-((1S,6S)-5-(5-hydroxy-6-methylpyrimidine-4-carbonyl)-2,5-diazabicyclo[4.2.0]octan-2-yl)-8-oxopyrido[2,3-b]pyrazin-5(8H)-yl)-N-(2-chloro-4-(trifluoromethyl)phenyl)acetamide]	pEC50 [1]: > 6.30
	7.30 to 8.30	CCc1c(N2CCN(C(=O)c3ncnc(C)c3O)[C@@H](C)C2)c(=O)c2nc(N(C)C)cnc2n1CC(=O)Nc1ccc(C(F)(F)F)cc1Cl [I-173, N-[2-chloro-4-(trifluoromethyl)phenyl]-2-[2-(dimethylamino)-6-ethyl-7-[(3S)-4-(5-hydroxy-6-methylpyrimidine-4-carbonyl)-3-methylpiperazin-1-yl]-8-oxo-5H,8H-pyrido[2,3-b]pyrazin-5-yl]acetamide]	
	7.30 to 8.30	C#C[C@H]1CN(C(=O)c2ncnc(C)c2O)CCN1c1c(CC)n(CC(=O)Nc2ccc(C(F)(F)F)cc2Cl)c2ncc(N(C)C)nc2c1=O [I-260, N-[2-chloro-4-(trifluoromethyl)phenyl]-2-[2-(dimethylamino)-6-ethyl-7-[(2S)-2-ethynyl-4-(5-hydroxy-6-methylpyrimidine-4-carbonyl)piperazin-1-yl]-8-oxo-5H,8H-pyrido[2,3-b]pyrazin-5-yl]acetamide]	
